Data reported in patent US20240398757A1 (COCRYSTAL PHARMA, INC., priority 2022, published 2024).

The compounds below were run against T1, SARS2 protease (Severe acute respiratory syndrome coronavirus 2, UniProt P0DTD1) (assay: SARS-CoV-2 protease inhibition assay (SARS2 FRET protease assay)). Conditions: IC50 (μM), SARS2 protease 30 nM, peptide substrate 1.3 μM, 120 minutes at 37° C., compounds 20 μM to 0.075 nM.
T1 construct: SARS2 protease was added to a final concentration of 30 nM
Assay type: biochemical

Row | Structure (SMILES) | IC50
1 | CCCC[C@H](NC(=O)O[C@@H](c1ccccc1)C(F)(F)c1cccc(Cl)c1)C(=O)N[C@H](C=O)C[C@@H]1CCCNC1=O [Compound A150] | < 0.0001 µM
2 | CCCCC[C@H](NC(=O)O[C@@H](c1ccccc1)C(F)(F)c1cccc(Cl)c1)C(=O)N[C@H](C=O)C[C@@H]1CCNC1=O [Compound A151] | 0.0002 µM
3 | CC(C)C[C@H](NC(=O)O[C@H](c1ccccc1)C(F)(F)c1cccc(F)c1)C(=O)N[C@H](C=O)C[C@@H]1CCNC1=O [Compound A152] | 0.0078 µM
4 | CCC[C@H](NC(=O)O[C@@H](c1ccccc1)C(F)(F)c1cccc(Cl)c1)C(=O)N[C@H](C=O)C[C@@H]1CCNC1=O [Compound A153] | 0.0006 µM
5 | O=C[C@H](C[C@@H]1CCCNC1=O)NC(=O)[C@H](CC1CCCCC1)NC(=O)O[C@@H](c1ccccc1)C(F)(F)c1cccc(Cl)c1 [Compound A154] | 0.334 µM
6 | O=C[C@H](C[C@@H]1CCCNC1=O)NC(=O)[C@H](CC1CCCCC1)NC(=O)O[C@H](c1ccccc1)C(F)(F)c1cccc(Cl)c1 [Compound A155] | 0.611 µM
7 | O=C[C@H](C[C@@H]1CCNC1=O)NC(=O)[C@H](CC1CC1)NC(=O)O[C@@H](c1ccccc1)C(F)(F)c1cccc(Cl)c1 [Compound A156] | 0.289 µM
8 | O=C[C@H](C[C@@H]1CCNC1=O)NC(=O)[C@H](CC1CC1)NC(=O)O[C@H](c1ccccc1)C(F)(F)c1cccc(Cl)c1 [Compound A157] | 0.0002 µM
9 | CC(C)C[C@H](NC(=O)O[C@@H](c1ccccc1)C(C)(C)c1cccc(Cl)c1)C(=O)N[C@H](C=O)C[C@@H]1CCCNC1=O [Compound A158] | 0.002 µM
10 | CCCC[C@H](NC(=O)O[C@@H](c1ccc(F)cc1)C(F)(F)c1cccc(Cl)c1)C(=O)N[C@H](C=O)C[C@@H]1CCNC1=O [Compound A159] | 0.003 µM
11 | CCCC[C@H](NC(=O)O[C@H](c1ccc(F)cc1)C(F)(F)c1cccc(Cl)c1)C(=O)N[C@H](C=O)C[C@@H]1CCNC1=O [Compound A160] | 0.47 µM
12 | O=C[C@H](C[C@H]1CCNC1=O)NC(=O)[C@H](CC1CCCCC1)NC(=O)OC(c1ccccc1)C(F)(F)c1cccc(Cl)c1 (stereo partly drawn) [Compound A161] | 0.582 µM
13 | O=C[C@H](C[C@@H]1CCNC1=O)NC(=O)[C@H](CCC(F)F)NC(=O)OC(c1ccccc1)C(F)(F)c1cccc(Cl)c1 (stereo partly drawn) [Compound A163, 2-(3-chlorophenyl)-2,2-difluoro-1-phenylethyl ((S)-5,5-difluoro-1-oxo-1-(((S)-1-oxo-3-((S)-2-oxopyrrolidin-3-yl)propan-2-yl)amino)pentan-2-yl)carbamate] | 0.017 µM
14 | CCC[C@H](NC(=O)O[C@@H](c1ccccc1)C(F)(F)c1cccc(F)c1)C(=O)N[C@H](C=O)C[C@@H]1CCNC1=O [Compound A166] | 0.0025 µM
15 | CCCC[C@H](NC(=O)OC(c1ccccc1)C(F)(F)c1cccc(Cl)c1)C(=O)N[C@@H](C[C@H]1CCNC1=O)C(=O)C(=O)NC1CC1 (stereo partly drawn) [Compound A168] | 0.75 µM
16 | O=C(N[C@@H](CC1CCCCC1)C(=O)N[C@@H](C[C@H]1CCNC1=O)C(=O)C(=O)NC1CC1)OC(c1ccccc1)C(F)(F)c1cccc(Cl)c1 (stereo partly drawn) [Compound A169] | 1.25 µM
17 | CC(C)C[C@H](NC(=O)OC(c1ccccc1)C(F)(F)c1cccc(C2CC2)c1)C(=O)N[C@@H](C[C@@H]1CCNC1=O)C(=O)C(=O)NC1CC1 (stereo partly drawn) [Compound A170] | 0.0002 µM
18 | CC(C)C[C@H](NC(=O)OC(c1ccccc1)C(C)(C)c1cccc(C(F)(F)F)c1)C(=O)N[C@H](C=O)C[C@@H]1CCNC1=O (stereo partly drawn) [Compound A171] | 0.0001 µM
19 | CCC[C@H](NC(=O)O[C@H](c1ccccc1)C(F)(F)c1cccc(F)c1)C(=O)N[C@H](C=O)C[C@@H]1CCNC1=O [Compound A172] | 0.0185 µM
20 | CCNC(=O)C(=O)[C@H](C[C@@H]1CCNC1=O)NC(=O)[C@H](CC1CC1)NC(=O)O[C@@H](c1ccccc1)C(F)(F)c1cccc(Cl)c1 [Compound A174] | 0.0014 µM
21 | O=C(N[C@@H](CC1CCCCC1)C(=O)N[C@@H](C[C@@H]1CCNC1=O)C(=O)C(=O)NC1CC1)O[C@H](c1ccccc1)C(F)(F)c1cccc(Cl)c1 [Compound A175] | 1.36 µM
22 | O=C(N[C@@H](CC1CC1)C(=O)N[C@@H](C[C@@H]1CCNC1=O)C(=O)C(=O)NC1CC1)O[C@@H](c1ccccc1)C(F)(F)c1cccc(Cl)c1 [Compound A176] | 0.002 µM
23 | CCCC[C@H](NC(=O)O[C@H](c1ccccc1)C(C)(C)c1cccc(Cl)c1)C(=O)N[C@@H](C[C@@H]1CCNC1=O)C(=O)C(=O)NC1CC1 [Compound A178] | 1.04 µM
24 | O=C(N[C@@H](CCC(F)F)C(=O)N[C@@H](C[C@@H]1CCNC1=O)C(=O)C(=O)NC1CC1)OC(c1ccccc1)C(F)(F)c1cccc(Cl)c1 (stereo partly drawn) [Compound A179, 2-(3-chlorophenyl)-2,2-difluoro-1-phenylethyl ((S)-1-(((S)-4-(cyclopropylamino)-3,4-dioxo-1-((S)-2-oxopyrrolidin-3-yl)butan-2-yl)amino)-5,5-difluoro-1-oxopentan-2-yl)carbamate] | 0.006 µM
25 | O=C(N[C@@H](CCCF)C(=O)N[C@@H](C[C@@H]1CCNC1=O)C(=O)C(=O)NC1CC1)OC(c1ccccc1)C(F)(F)c1cccc(Cl)c1 (stereo partly drawn) [Compound A180] | 0.095 µM
26 | CC(C)C[C@H](NC(=O)OC(C(C)C)C(F)(F)c1cccc(C2CC2)c1)C(=O)N[C@@H](C[C@@H]1CCNC1=O)C(=O)C(=O)NC1CC1 (stereo partly drawn) [Compound A181] | 0.52 µM

Row | Structure (SMILES) | IC50
27 | CC(C)C[C@H](NC(=O)OC(c1ccccc1)C(F)(F)c1cccc(C(C)C)c1)C(=O)N[C@@H](C[C@@H]1CCNC1=O)C(=O)C(=O)NC1CC1 (stereo partly drawn) [Compound A182] | 0.001 µM
28 | CCCC[C@H](NC(=O)OC(c1ccccc1)C(F)(F)c1cccc(Cl)c1)C(=O)N[C@H](C=O)C[C@H]1CCNC1=O (stereo partly drawn) [Compound A183] | 0.019 µM
29 | CCCC[C@H](NC(=O)OC(c1ccccc1)C(F)(F)c1cccc(Cl)c1)C(=O)N[C@@H](C[C@H]1CCNC1=O)C(=O)C(=O)NCC (stereo partly drawn) [Compound A185] | 0.91 µM
30 | CCCC(=O)OC([C@H](C[C@@H]1CCNC1=O)NC(=O)[C@H](CC1CCCCC1)NC(=O)O[C@H](c1ccccc1)C(F)(F)c1cccc(Cl)c1)S(=O)(=O)O (stereo partly drawn) [Compound A186] | 0.319 µM
31 | CCNC(=O)C(=O)[C@H](C[C@H]1CCNC1=O)NC(=O)[C@H](CC(C)C)NC(=O)OC(c1ccccc1)C(F)(F)c1cccc(Cl)c1 (stereo partly drawn) [Compound A188] | 0.392 µM
32 | CCCC[C@H](NC(=O)OC(c1ccccc1)C(C)(C)c1cccc(Cl)c1)C(=O)N[C@@H](C[C@@H]1CCNC1=O)C(=O)C(=O)NC1CC1 (stereo partly drawn) [Compound A189] | 1.37 µM
33 | CC(C)C[C@H](NC(=O)OC(c1ccccc1)C(F)(F)c1cccc(-c2ccccc2)c1)C(=O)N[C@@H](C[C@@H]1CCNC1=O)C(=O)C(=O)NC1CC1 (stereo partly drawn) [Compound A191] | 0.006 µM
34 | CCCC[C@H](NC(=O)OC(c1ccccc1)C(F)(F)c1cccc(Cl)c1)C(=O)NC(C)(C=O)CC1CCNC1=O (stereo partly drawn) [Compound A192] | 0.978 µM
35 | CC(C)C[C@H](NC(=O)O[C@@H](c1ccccc1)C(F)(F)c1cccc(C(C)C)c1)C(=O)N[C@@H](C[C@@H]1CCNC1=O)C(=O)C(=O)NC1CC1 [Compound A193] | 0.135 µM
36 | CC(C)C[C@H](NC(=O)O[C@H](c1ccccc1)C(F)(F)c1cccc(C(C)C)c1)C(=O)N[C@@H](C[C@@H]1CCNC1=O)C(=O)C(=O)NC1CC1 [Compound A194] | 0.005 µM
37 | CCCC[C@H](NC(=O)O[C@@H](c1ccccc1)C(F)(F)c1cccc(Cl)c1)C(=O)N[C@@H](C[C@@H]1CCCNC1=O)C(=O)C(=O)NC1CC1 [Compound A195] | 0.211 µM
38 | CC(C)C[C@H](NC(=O)OC(c1ccccc1)C(C)(C)c1cccc(C(F)(F)F)c1)C(=O)N[C@@H](C[C@@H]1CCNC1=O)C(=O)C(=O)NC1CC1 (stereo partly drawn) [Compound A197] | 0.027 µM
39 | CC(C)C[C@H](NC(=O)OC(C(C)C)C(F)(F)c1cccc(C2CC2)c1)C(=O)N[C@H](C=O)C[C@@H]1CCNC1=O (stereo partly drawn) [Compound A198] | 0.006 µM
40 | CCCC[C@H](NC(=O)O[C@@H](c1ccc(F)cc1)C(F)(F)c1cccc(Cl)c1)C(=O)N[C@@H](C[C@@H]1CCNC1=O)C(=O)C(=O)NC1CC1 [Compound A199] | 0.494 µM
41 | CCCC[C@H](NC(=O)O[C@H](c1ccc(F)cc1)C(F)(F)c1cccc(Cl)c1)C(=O)N[C@@H](C[C@@H]1CCNC1=O)C(=O)C(=O)NC1CC1 [Compound A200] | 0.0004 µM
42 | CCCC[C@H](NC(=O)O[C@H](c1cccc(F)c1)C(F)(F)c1cccc(F)c1)C(=O)N[C@H](C=O)C[C@@H]1CCNC1=O [Compound A201] | 0.001 µM
43 | CC(C)C[C@H](NC(=O)O[C@@H](c1ccc(F)cc1)C(C)(C)c1cccc(Cl)c1)C(=O)N[C@H](C=O)C[C@@H]1CCNC1=O [Compound A202] | 0.021 µM
44 | NC(=O)C(=O)[C@H](C[C@@H]1CCNC1=O)NC(=O)[C@H](CC1CCCCC1)NC(=O)OC(c1ccccc1)C(F)(F)c1cccc(Cl)c1 (stereo partly drawn) [Compound A204] | 0.001 µM
45 | O=C[C@H](C[C@@H]1CCNC1=O)NC(=O)[C@H](CC1CCC1)NC(=O)O[C@H](c1ccccc1)C(F)(F)c1cccc(Cl)c1 [Compound A205] | 0.0002 µM
46 | CCNC(=O)C(=O)[C@H](C[C@H]1CCNC1=O)NC(=O)[C@H](CC1CCCCC1)NC(=O)OC(c1ccccc1)C(F)(F)c1cccc(Cl)c1 (stereo partly drawn) [Compound A207] | 0.764 µM
47 | CCC[C@H](NC(=O)O[C@H](c1ccccc1)C(F)(F)c1cccc(Cl)c1)C(=O)N[C@H](C=O)C[C@@H]1CCNC1=O [Compound A208] | 0.004 µM
48 | CCC(=O)OC([C@H](C[C@@H]1CCNC1=O)NC(=O)[C@H](CC1CCCCC1)NC(=O)O[C@@H](c1ccccc1)C(F)(F)c1cccc(Cl)c1)S(=O)(=O)O (stereo partly drawn) [Compound A211] | 0.504 µM
49 | CCC(=O)OC([C@H](C[C@@H]1CCNC1=O)NC(=O)[C@H](CC1CCCCC1)NC(=O)O[C@H](c1ccccc1)C(F)(F)c1cccc(Cl)c1)S(=O)(=O)O (stereo partly drawn) [Compound A212] | 4.15 µM
50 | CCCC[C@H](NC(=O)O[C@@H](c1ccccc1)C(F)(F)c1cccc(Cl)c1)C(=O)N[C@@H](C[C@@H]1CCNC1=O)C(OC(=O)CC)S(=O)(=O)O (stereo partly drawn) [Compound A213] | 5.02 µM
51 | CCCC[C@H](NC(=O)O[C@H](c1ccccc1)C(F)(F)c1cccc(Cl)c1)C(=O)N[C@@H](C[C@@H]1CCNC1=O)C(OC(=O)CC)S(=O)(=O)O (stereo partly drawn) [Compound A214] | 1.86 µM
